Experimental data as given in patent publication US20120107331A1, “GEMM RIBOSWITCHES, STRUCTURE-BASED COMPOUND DESIGN WITH GEMM RIBOSWITCHES, AND METHODS AND COMPOSITIONS FOR USE OF AND WITH GEMM RIBOSWITCHES” (YALE UNIVERSITY, priority 2009, published 2012).

What was measured:
[1] = test system: GEMM riboswitch C92U, G20A mutant; assay: Gel-shift Kd measurement, C92U, G20A double mutant RNA; type: binding, Vibrio cholerae; conditions: for Kd: gel-shift, RNA C92U, G20A, dash = no binding
Excerpt: (§1) Point mutants were cloned using the Quik Change protocol. Radiolabeled c-di-GMP was obtained enzymatically according to published procedures and purified by polyacrylamide gel electrophoresis (PAGE) (Paul, R. et al. Cell cycle-dependent dynamic localization of a bacterial response regulator with a novel di-guanylate cyclase output domain. Genes & Development 18, 715-27 (2004); Christen, M., Christen, B., Folcher, M., Schauerte, A. & Jenal, U. Identification and characterization of a cyclic di-GMP-specific phosphodiesterase and its allosteric control by GTP. J Biol Chem 280, 30829-37 (2005)). A constitutively active DGC, PleD* was expressed and purified as described and the reaction was initiated using [α-^32P]GTP as the substrate (Paul, R. et al. Cell cycle-dependent dynamic localization of a bacterial response regulator with a novel di-guanylate cyclase output domain. Genes & Development 18, 715-27 (2004)). A single band appeared as the reaction proceeded that ran slower than the starting material when purified by PAGE. Radiolabeled c-diAMP was obtained similarly, using the protein DisA and [α-^32P]ATP as the substrate. Riboswitch RNAs were folded in the presence of radiolabeled c-di-GMP or c-diAMP and folding buffer. The complex was allowed to equilibrate for 1 hour and bound and free c-di-GMP were separated by native (100 mM Tris/HEPES pH 7.5, 10 mM MgCl2, 0.1 mM EDTA) PAGE at 4° C. A STORM phosphorimager was used to scan gels and the bands were quantitated using ImageQuant. Fraction bound was graphed versus RNA concentration and fit using KaleidaGraph to obtain Kds according to the equation:
(§2) F=fraction bound; F∞=fraction bound at saturation; C=riboswitch concentration
A gel-shift assay, which directly measures c-di-GMP binding to the GEMM RNA (FIG. 3A, B), was developed in order to test biochemical predictions resulting from the GEMM riboswitch structure. Specifically, radiolabeled c-di-GMP was incubated with the riboswitch and the RNA bound ligand was separated from the free on a native polyacrylamide gel. […]

[2] = molecular target: GEMM riboswitch Vc2 91 (WT-91); assay: Gel-shift Kd measurement, WT-91 RNA (crystallization construct with no U1A binding loop); design: species or system Vibrio cholerae; conditions: radiolabeled ligand, RNA WT-91, dash = no binding seen
Excerpt: as §1, with “The complex was allowed to equilibrate for 1 hour and bound and free c-di-GMP were separated by native (100 mM Tris/HEPES pH 7.5, 10 mM MgCl2, 0.1 mM EDTA) PAGE at 4° C.” left out, “Fraction bound was graphed versus RNA concentration and fit using KaleidaGraph to obtain Kds according to the equation:” left out

[3] = molecular target: GEMM riboswitch Vc2 91 with a U1A binding loop (WT-U1A); assay: Gel-shift Kd measurement, WT-U1A RNA (Vc2 91 with a U1A binding loop); design: species or system Vibrio cholerae
Excerpt: as §1, with “The complex was allowed to equilibrate for 1 hour and bound and free c-di-GMP were separated by native (100 mM Tris/HEPES pH 7.5, 10 mM MgCl2, 0.1 mM EDTA) PAGE at 4° C.” left out, “Fraction bound was graphed versus RNA concentration and fit using KaleidaGraph to obtain Kds according to the equation:” left out

[4] = molecular target: GEMM riboswitch Vc2 110 (WT-110); assay: Gel-shift Kd measurement, WT-110 RNA; type: binding, Vibrio cholerae; conditions: for Kd / binding (in words): gel-shift; for Kd: radiolabeled ligand, RNA WT-110, dash = no binding
Excerpt: as §1, §2
(§3) A gel-shift assay, which directly measures c-di-GMP binding to the GEMM RNA (FIG. 3A, B), was developed in order to test biochemical predictions resulting from the GEMM riboswitch structure. Specifically, radiolabeled c-di-GMP was incubated with the riboswitch and the RNA bound ligand was separated from the free on a native polyacrylamide gel.
This assay was used to measure a binding constant for the crystallized RNA and also to verify that this method gave the Kd measurements similar to what had been fond using in-line probing. To validate the method, Vc2 110 was used and found to have a Kd of ˜7 nM. This value agrees well with affinities obtained previously by in-line probing for this same sequence (Sudarsan, N. et al. Riboswitches in eubacteria sense the second messenger cyclic di-GMP. Science 321, 411-3). A RNA corresponding to the crystallization construct with no U1A binding loop (Vc2 91) was then tested. […] The RNA used in the crystallographic studies (Vc2 91 with a U1A binding loop) bound with a Kd slightly weaker than wild-type, but is within 9-fold of the original value.

[5] = test system: GEMM riboswitch C92U mutant (WT-110 background); assay: Gel-shift Kd measurement, C92U mutant RNA; type: binding, Vibrio cholerae; conditions: for Kd / binding (in words): gel-shift; for Kd: RNA C92U, dash = no binding; for binding (in words): C92U RNA
Excerpt: as §1, §2, §3
(§4) The three nucleotides directly involved in ligand recognition (G20, A47 and C92) were mutated and affinity for c-di-GMP was measured by gel shift analysis in the context of the WT-110 nucleotide background (Table 1) (Sudarsan, N. et al. Riboswitches in eubacteria sense the second messenger cyclic di-GMP. Science 321, 411-3). Mutational analysis supports the crystallographically observed base pair between a conserved cytidine, C92, and c-di-GMP. […] By mutating it to an A or G, this ability to base pair with the ligand is lost. The large effect that these mutations have on ligand binding confirms that C92 is making an important contact with Gβ. The minor affect seen upon mutation to a U is in a reasonable range given the potential to form a wobble pair with Gβ. A natural GEMM sequence has been identified that lacks a C at position 92, but instead has a C at position 93. This RNA can bind c-di-GMP with an affinity of approximately 1 uM.

[6] = test system: GEMM riboswitch G20A mutant (WT-110 background); assay: Gel-shift Kd measurement, G20A mutant RNA; type: binding, Vibrio cholerae
Excerpt: (§5) Point mutants were cloned using the Quik Change protocol. Radiolabeled c-di-GMP was obtained enzymatically according to published procedures and purified by polyacrylamide gel electrophoresis (PAGE) (Paul, R. et al. Cell cycle-dependent dynamic localization of a bacterial response regulator with a novel di-guanylate cyclase output domain. Genes & Development 18, 715-27 (2004); Christen, M., Christen, B., Folcher, M., Schauerte, A. & Jenal, U. Identification and characterization of a cyclic di-GMP-specific phosphodiesterase and its allosteric control by GTP. J Biol Chem 280, 30829-37 (2005)). A constitutively active DGC, PleD* was expressed and purified as described and the reaction was initiated using [α-^32P]GTP as the substrate (Paul, R. et al. Cell cycle-dependent dynamic localization of a bacterial response regulator with a novel di-guanylate cyclase output domain. Genes & Development 18, 715-27 (2004)). […] A STORM phosphorimager was used to scan gels and the bands were quantitated using ImageQuant. […]
(§6) The three nucleotides directly involved in ligand recognition (G20, A47 and C92) were mutated and affinity for c-di-GMP was measured by gel shift analysis in the context of the WT-110 nucleotide background (Table 1) (Sudarsan, N. et al. Riboswitches in eubacteria sense the second messenger cyclic di-GMP. Science 321, 411-3). […]

[7] = test system: GEMM riboswitch G20C mutant (WT-110 background); assay: Gel-shift Kd measurement, G20C mutant RNA; type: binding, Vibrio cholerae
Excerpt: as §1
F=fraction bound; F∞=fraction bound at saturation; C=riboswitch concentration […]
as §6

[8] = test system: GEMM riboswitch G20U mutant (WT-110 background); assay: Gel-shift Kd measurement, G20U mutant RNA; type: binding, Vibrio cholerae
Excerpt: as §5, §6

[9] = test system: GEMM riboswitch A47C mutant (WT-110 background); assay: Gel-shift Kd measurement, A47C mutant RNA; type: binding, Vibrio cholerae
Excerpt: as §5, §6

[10] = test system: GEMM riboswitch A47G mutant (WT-110 background); assay: Gel-shift Kd measurement, A47G mutant RNA; type: binding, Vibrio cholerae; conditions: for Kd: gel-shift, RNA A47G, dash = no binding
Excerpt: as §1, §2, §3
as §4, with “A natural GEMM sequence has been identified that lacks a C at position 92, but instead has a C at position 93. This RNA can bind c-di-GMP with an affinity of approximately 1 uM.” left out

[11] = test system: GEMM riboswitch A47U mutant (WT-110 background); assay: Gel-shift Kd measurement, A47U mutant RNA; type: binding, Vibrio cholerae
Excerpt: as §5, §6

[12] = test system: GEMM riboswitch C92 to A mutant (WT-110 background); assay: Gel-shift affinity measurement, C92A mutant RNA; type: binding, Vibrio cholerae
Excerpt: as §5, §6

[13] = test system: GEMM riboswitch C92 to G mutant (WT-110 background); assay: Gel-shift affinity measurement, C92G mutant RNA; type: binding, Vibrio cholerae
Excerpt: as §5, §6

[14] = molecular target: natural GEMM sequence that lacks a C at position 92 but has a C at position 93; assay: Binding of c-di-GMP to natural GEMM sequence with C at position 93; conditions: read-out: affinity
Procedure: as §4

[15] = test system: natural GEMM sequence lacking C at position 92, C at position 93 mutated to an A; assay: Binding of c-di-GMP to natural GEMM sequence with C93 mutated to A
Procedure: as §4

GEMM riboswitch = conditions: Sudarsan et al. 2008; read-out: affinity; cited from earlier work
[16] = molecular target: known c-di-GMP binding proteins; conditions: range from 50 nM to several micromolar; Hengge 2009; read-out: binding affinity; cited from earlier work

Nc1ncnc2c1ncn2[C@@H]1O[C@@H]2COP(=O)(O)O[C@H]3[C@@H](O)[C@H](n4cnc5c(N)ncnc54)O[C@@H]3COP(=O)(O)O[C@H]2[C@H]1O [c-di-AMP, cyclic diadenosine monophosphate]
bound c-di-AMP better than c-di-GMP ([1]; C92U/G20A double mutant): approximately 6 fold
Kd [1]: 540 ± 29 nM

Nc1nc2c(ncn2[C@@H]2O[C@@H]3COP(=O)(O)O[C@H]4[C@@H](O)[C@H](n5cnc6c(=O)[nH]c(N)nc65)O[C@@H]4COP(=O)(O)O[C@H]3[C@H]2O)c(=O)[nH]1 [c-di-GMP, cyclic diguanosine monophosphate]
Kd [2]: 6.4 ± 2.8 nM
Kd weaker than wild-type ([3]; Vc2 91 with U1A binding loop vs original value): ≤ 9 fold
Kd ([3]; gel-shift, radiolabeled ligand, RNA WT-U1A, dash = no binding seen): 55 ± 14 nM
Kd [4]: 7.4 ± 2.4 nM
loss in affinity ([5]; C92U vs wild-type, c-di-GMP): 6 fold
Kd [5]: 43 ± 19 nM
Kd [1]: 3200 ± 600 nM
effect of mutation on affinity (in words) ([6]; G20 to A): maintains approximately wild-type affinity
Kd ([6]; gel-shift, RNA G20A, dash = no binding): 4.7 ± 1.3 nM
reduction in affinity ([7]; G20C vs wild-type): 2 fold
effect of mutation on affinity (in words) ([7]; G20 to C): maintains approximately wild-type affinity
Kd ([7]; gel-shift, RNA G20C, dash = no binding): 13 ± 1.2 nM
loss in affinity ([8]; G20U vs wild-type): approximately 45 fold
Kd ([8]; gel-shift, RNA G20U, dash = no binding): 330 ± 150 nM
decrease in binding affinity ([9]; A47 mutated to C vs wild-type): approximately 1000 fold
Kd ([9]; gel-shift, RNA A47C, dash = no binding): 8500 ± 3000 nM
decrease in binding affinity ([10]; A47 mutated to G vs wild-type): approximately 1000 fold
Kd [10]: 4200 ± 1700 nM
decrease in binding affinity ([11]; A47 mutated to U vs wild-type): approximately 1000 fold
Kd ([11]; gel-shift, RNA A47U, dash = no binding): 3500 ± 520 nM
effect of mutation on affinity (in words) [12]: reduces affinity for c-di-GMP substantially
effect of mutation on affinity (in words) [13]: reduces affinity for c-di-GMP substantially
Kd [14]: ~1000 nM
affinity (in words) [15]: all affinity for c-di-GMP is lost
Kd (GEMM riboswitch): ~1 nM
Kd [16]: ≥ 50 nM

Nc1nc2c(ncn2[C@@H]2O[C@H](COP(=O)(O)O[C@H]3[C@@H](O)[C@H](n4cnc5c(N)ncnc54)O[C@@H]3COP(=O)(O)O)[C@@H](O)[C@H]2O)c(=O)[nH]1 [pApG]
binding (in words) [5]: does not bind

Nc1nc2c(ncn2[C@@H]2O[C@H](COP(=O)(O)O)[C@@H](OP(=O)(O)OC[C@H]3O[C@@H](n4cnc5c(N)ncnc54)[C@H](O)[C@@H]3O)[C@H]2O)c(=O)[nH]1 [pGpA]
binding (in words) ([4]; wild-type sequence): not
affinity lower than that of the wild-type RNA for pGpG ([5]; C92U RNA with pGpA vs wild-type RNA with pGpG): approximately 27 fold
binding (in words) [5]: binding was observed
Kd [5]: 16000 ± 5200 nM

Nc1nc2c(ncn2[C@@H]2O[C@H](COP(=O)(O)O[C@H]3[C@@H](O)[C@H](n4cnc5c(=O)[nH]c(N)nc54)O[C@@H]3COP(=O)(O)O)[C@@H](O)[C@H]2O)c(=O)[nH]1 [pGpG]
Kd [4]: 490 ± 150 nM
binding (in words) ([4]; wild-type sequence): binds
affinity lower than that of the cyclic ligand ([4]; wild-type sequence, pGpG vs c-di-GMP): approximately 66 fold
binding (in words) [5]: does not bind
binds the linear form better than c-di-GMP ([10]; A47G, pGpG vs c-di-GMP): 3 fold
Kd [10]: 1400 ± 120 nM
